PMC6158189, “A pharmacological probe identifies cystathionine β-synthase as a new negative regulator for ferroptosis” (Cell Death & Disease, 2018)

Assays:
hCSE = hCSE (Homo sapiens, UniProt P32929); test: H2S in HEK293T cells transiently expressing hCSE (AzMC probe); format: cell-based; conditions: 10 μM, 8 h
Method: HEK293T cells were transiently transfected with empty vector (EV, i and ii), hCBS-FL (iii and iv) or hCSE (v and vi) plasmids, followed by incubation with DMSO (i–iii and v) or 10 μM CH004 (iv and vi) for 8 h before staining with 50 μM AzMC, a H2S-specific probe (“Materials and Methods” section). For larger fluorescent and bright-field images, please see Supplementary Figure 4. The expression levels of hCBS or hCSE in HEK293T cells after transient transfections were determined by western blotting using an anti-CBS antibody (3E1, 1:2000; Abnova) or anti-CSE antibody (1:500, GeneTex). The densities of protein bands for hCBS or hCSE in the blots were quantified with the ImageJ software (National Institutes of Health, Bethesda, MD, USA) and expressed as ratios of respective control (EV group). […] The fluorescent images of the H2S (blue) were accordingly quantified (“Materials and Methods” section) with ImageJ. […] A representative fluorescence image from three independent experiments is shown. […]
H2S levels in living cells were detected using a H2S-specific fluorescent probe according to a protocol described previously[31],[55]. […] After incubation with 50 μM AzMC at 37 °C for 30 min, the cells were washed 4 times with PBS, and the fluorescent images were recorded with excitation by 405 nm laser by using a A1Si (Nikon) confocal microscope. […]

HEK293T cells = test: cell cycle distribution (propidium iodide, flow cytometry); format: cell-based; conditions: 3 μM, 12 h
Method: Fig. 4 CH004 arrests the cell cycle at the S phase. a CH004 reduces the cell viability of HEK293T and HepG2 cells. HEK293T or HepG2 cells were treated with indicated concentrations of CH004 for 24 h before the cell number was analyzed using the CellTiter96® Aqueous One Solution Cell Proliferation Assay (Promega, Materials and Methods). The means at each concentration of one representative experiment are shown as percentages of DMSO (control, 100%). Means ± SDs (n = 3). b Overexpression of hCBS or knock-down of hCBS counteracts the growth inhibition exerted by CH004 in HEK293T cells. Indicated HEK293T stable cell lines were treated with the CH004 or DMSO for 24 h. Then, the cell viability was quantified with the CellTiter 96® Aqueous One Solution Cell Proliferation Assay under the standard protocol (Promega). […] The efficacy for CBS overexpression and knock-down in HEK293T cells was determined by Western blotting using an anti-CBS antibody (3E1, 1:2000; Abnova). c CH004 induces cell death in HEK293T and HepG2 cells. […] HEK293T cells were incubated with indicated compounds for 12 h, and the DNA content was quantified with propidium iodide to analyze the cell cycle distribution by flow cytometry (e). The cell cycle distributions for HEK293T-shNT and HEK293T-shCBS cells were accordingly analyzed and are shown in f. […]

hCSE, sequence (P32929 whole entry): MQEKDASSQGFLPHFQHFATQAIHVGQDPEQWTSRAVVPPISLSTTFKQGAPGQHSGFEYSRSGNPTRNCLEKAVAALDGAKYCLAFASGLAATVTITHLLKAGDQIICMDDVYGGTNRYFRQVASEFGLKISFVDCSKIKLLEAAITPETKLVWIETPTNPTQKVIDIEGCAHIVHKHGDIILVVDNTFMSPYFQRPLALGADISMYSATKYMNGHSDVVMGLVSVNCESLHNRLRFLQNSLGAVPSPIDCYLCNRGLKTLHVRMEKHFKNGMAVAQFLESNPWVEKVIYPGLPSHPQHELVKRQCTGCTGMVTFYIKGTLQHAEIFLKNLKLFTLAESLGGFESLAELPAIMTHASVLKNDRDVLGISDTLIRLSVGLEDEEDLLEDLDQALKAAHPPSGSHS

SMILES: Cn1nc(Cc2ccccc2)nc2c(=O)n(C)c(=O)nc1-2 [CH004, 3-benzyl-1,6-dimethylpyrimido[5,4-e][1,2,4]triazine-5,7(1H,6H)-dione]
- effect on production of H2S (hCSE): did not interfere
- increase in cell number in the S phase (HEK293T cells): more than 20%
